This is an account of results in US9227923B2, “Pesticidal carboxamides” (Bayer Intellectual Property GmbH, priority 2009, dated 2016).

A word on the mortality: it is the share of the test organisms that died.

In one series the test system is Ctenocephalides felis. As to the kind of experiment: whole plant or invertebrate. The format is in vivo. As to conditions: for mortality at 100 ppm: Ctenocephalides felis, in Bos taurus, 48 h, read-out: activity (mortality in %); for activity (mortality in %): application rate of 100 ppm in cattle blood, after 2 days. The protocol: (§1) Solvent: dimethyl sulfoxide
Approximately 20 adult unfed (Ctenocepahlides felis) are placed in flea chambers. […] The blood chamber is heated to 37° C. whereas the flea chamber is kept at room temperature.

The subject of series [1] is Lucilia cuprina 1st instar larvae. As to the kind of experiment: whole plant or invertebrate. It is filed as in vivo. To be noted: for mortality at 100 ppm: Lucilia cuprina, 48 h, read-out: activity (percentage of larval mortality); for activity (percentage of larval mortality): application rate of 100 ppm, after 48 hrs. The procedure:
species: Lucilia cuprina 1st instar larvae (age 24 hrs)
solvent: dimethyl sulfoxide
Serial dilutions are made to obtain the desired rates. Approximately 20 Lucilia cuprina 1st instar larvae are transferred into a test tube containing 1 cm^3 of minced horse meat and 0.5 ml aqueous dilution of test compound. After 48 hrs percentage of larval mortality are recorded. 100% efficacy=all larvae are killed, […].

For the next series, the system named is Boophilus microplus. Description: Boophilus microplus test (injection). The format is in vivo. To be noted: Rhipicephalus microplus, 168 h, read-out: activity (mortality in %; 100% means that all eggs are infertile). The procedure: as §1
Five adult engorged female ticks (Boophilus microplus) are injected with […] compound solution into the abdomen. Ticks are transferred into replica plates and incubated in a climate chamber for a period of time. Egg deposition of fertile eggs is monitored.
After 7 days mortality in % is determined. 100% means that all eggs are infertile; 0% means that all eggs are fertile. […]

The test system of series [2] is Cucurbit Leaf Beetle (Aulacophora Femoralis). As to the kind of experiment: Test against cucurbit leaf beetle (Aulacophora femoralis), leaf dip. To be noted: active compound concentration of 100 ppm, second instar larvae, after 7 days; for pest or weed control at 100 ppm: Aulacophora, foliar, 168 h, read-out: insecticidal activity. The format is in vivo. The essentials: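 Cucumber leaves dipped in compound solution (DMF solvent, polyoxyethylene alkyl phenyl ether emulsifier), air-dried, and placed with five second-instar larvae in cups on sterilized soil at 25° C. Dead larvae counted after 7 days; activity expressed as percent larvae killed.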

The test system of series [3] is Tobacco Cutworm (Spodoptera litura) Larvae. Description: Test against tobacco cutworm (Spodoptera litura) larvae, leaf dip. The format is in vivo. To be noted: active compound concentration of 100 ppm, third instar larvae, after 7 days; for pest or weed control at 100 ppm: Spodoptera litura, foliar, 168 h, read-out: insecticidal activity. The essentials: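 Sweet potato leaves were dipped in the test solution (DMF solvent, polyoxyethylene alkyl phenyl ether emulsifier), air-dried and offered to ten third-instar larvae per dish at 25 °C, with fresh leaves added on days 2 and 4. Mortality was counted at day 7 and expressed as % insecticidal activity (100% = all dead).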

Series [4] has as its system Two-Spotted Spider Mite (Tetranychus Urticae). As to the kind of experiment: Test against two-spotted spider mite (Tetranychus urticae), spray. It is filed as in vivo. As to conditions: active compound concentration of 100 ppm; adult mites; after 7 days. An excerpt: Solvent: 3 parts by weight of dimethylformamide
Emulsifier: 1 part by weight of polyoxyethylene alkyl phenyl ether

In another series the test system is Musca domestica. Description: whole plant or invertebrate. As to conditions: 48 h, read-out: activity (mortality in %). The procedure: as §1
Prior to the assay, a piece of kitchen sponge is soaked with a mixture of sugar and compound solution and placed into a container. 10 adults (Musca domestica) are placed into the container and closed with a perforated lid. After 2 days mortality in % is determined 100% means that all the flies have been killed; 0% means that none of the flies have been killed.

Regarding `CCc1cc(C(F)(C(F)(F)F)C(F)(F)F)cc(C)c1NC(=O)c1ccc(-n2cncn2)cc1` [Compound 1-31, N-[2-ethyl-4-(1,1,1,2,3,3,3-heptafluoropropan-2-yl)-6-methylphenyl]-4-(1H-1,2,4-triazol-1-yl)benzamide], the mortality at 100 ppm in the series on Ctenocephalides felis came out at 90%; in series [1], 100%. The mortality at 0.02 mg with Boophilus microplus is 100%. In addition, the pest or weed control at 100 ppm in series [2] and in series [3] was 100% in each case. For the same compound, the acaricidal activity in series [4] was found to be 100%.

With `CCc1cc(C(F)(C(F)(F)F)C(F)(F)F)cc(C)c1NC(=O)c1ccc(-n2cncn2)c(N)c1` [Compound 1-38, 3-amino-N-[2-ethyl-4-(1,1,1,2,3,3,3-heptafluoropropan-2-yl)-6-methylphenyl]-4-(1H-1,2,4-triazol-1-yl)benzamide], the mortality at 100 ppm (in the series with Ctenocephalides felis; in series [1]) was 100% in each case. Further, the mortality at 0.02 mg in the series on Boophilus microplus came to 100%. Moreover, in series [3], the pest or weed control at 100 ppm was determined as 100%.

As to `CCc1cc(C(F)(C(F)(F)F)C(F)(F)F)cc(C)c1NC(=O)c1ccc(-n2cncn2)c([N+](=O)[O-])c1` [Compound 1-39, N-[2-ethyl-4-(1,1,1,2,3,3,3-heptafluoropropan-2-yl)-6-methyl-phenyl]-3-nitro-4-(1H-1,2,4-triazol-1-yl)benzamide], the mortality at 100 ppm (with Ctenocephalides felis; in series [1]; in the series on Musca domestica) was 100% each time. For the same compound, the mortality at 0.02 mg in the series on Boophilus microplus is 100%. Moreover, the pest or weed control at 100 ppm in series [3] is 100%. Besides, the acaricidal activity in series [4] turned out to be 100%.

Turning to `CCc1cc(C(F)(C(F)(F)F)C(F)(F)F)cc(C)c1NC(=O)c1ccc(-n2cncn2)c(NC(=O)OC)c1` [Compound 1-47, Methyl[5-{[2-ethyl-4-(1,1,1,2,3,3,3-heptafluoropropan-2-yl)-6methylphenyl]carbamoyl}-2-(1H-1,2,4-triazol-1-yl)phenyl]carbamate], in the series with Ctenocephalides felis, the mortality at 100 ppm was 90%. Besides, the mortality at 0.02 mg with Boophilus microplus came to 100%. Besides, the pest or weed control at 100 ppm in series [2] and in series [3] was 100% in each case.

With `CCc1cc(C(F)(C(F)(F)F)C(F)(F)F)cc(C)c1NC(=O)c1ccc(-n2cncn2)c(C#N)c1` [Compound 1-49, 3-cyano-N-[2-ethyl-4-(1,1,1,2,3,3,3-heptafluoropropan-2-yl)-6-methylphenyl]-4-(1H-1,2,4-triazol-1-yl)benzamide], the mortality at 100 ppm stood at 95% with Ctenocephalides felis and 100% in series [1]. Further, in the series with Boophilus microplus, the mortality at 0.02 mg amounted to 100%. The pest or weed control at 100 ppm in series [2] and in series [3] was 100% throughout. This compound displayed an acaricidal activity in series [4] of 100%.

In the case of `O=C(Nc1c(Br)cc(C(F)(C(F)(F)F)C(F)(F)F)cc1Br)c1ccc(-n2cncn2)cc1` [Compound 1-78, N-[2,6-dibromo-4-(1,1,1,2,3,3,3-heptafluoropropan-2-yl)-phenyl]-4-(1H-1,2,4-triazol-1-yl)benzamide], the mortality at 100 ppm (in the series on Ctenocephalides felis; in series [1]; with Musca domestica) was 100% in each case. Moreover, the mortality at 0.02 mg in the series on Boophilus microplus is 100%. The pest or weed control at 100 ppm in series [2] and in series [3] was 100% in each case. This compound registered an acaricidal activity in series [4] of 100%.

Take `CCc1cc(C(F)(C(F)(F)F)C(F)(F)F)cc(C)c1NC(=O)c1ccc(CNC(C)=O)cc1` [Compound 5-28, 4-(acetamidomethyl)-N-[2-ethyl-4-(1,1,1,2,3,3,3-heptafluoro-propan-2-yl)-6-methylphenyl]benzamide]: in the series on Ctenocephalides felis, the mortality at 100 ppm came out at 100%. Further, the mortality at 0.02 mg with Boophilus microplus was 100%. The pest or weed control at 100 ppm in series [3] is 100%. The compound further registered an acaricidal activity in series [4] of 100%.

For the compound `CCc1cc(C(F)(C(F)(F)F)C(F)(F)F)cc(C)c1NC(=O)c1ccc(CNC(=O)c2cccnc2F)c(Cl)c1` [Compound 5-82], in series [1], the “activity (percentage of larval mortality)” value is reported as 95%. The insecticidal activity in series [2] and in series [3] was 100% in each case. In series [4], this compound displayed an acaricidal activity of 100%.

Consider `CCC(=O)NCc1ccc(C(=O)Nc2c(C)cc(C(F)(C(F)(F)F)C(F)(F)C(F)(F)F)cc2CC)cc1` (centres unmarked) [Compound 5-139], for which the “activity (mortality in %)” value in the series with Ctenocephalides felis was found to be 98%. For the same compound, the insecticidal activity in series [2] and in series [3] was 100% each time.

As to `CCc1cc(C(F)(C(F)(F)F)C(F)(F)C(F)(F)F)cc(C)c1NC(=O)c1ccc(CNC(=O)CC(F)(F)F)cc1` (centres unmarked) [Compound 5-142], the “activity (percentage of larval mortality)” value in series [1] is reported as 95%. Moreover, the insecticidal activity in series [2] and in series [3] was 100% each time.

Turning to `CCc1cc(C(F)(C(F)(F)F)C(F)(F)C(F)(F)F)cc(C)c1NC(=O)c1ccc(CNC(=O)C2CC2)c(F)c1` (centres unmarked) [Compound 5-146], the “activity (percentage of larval mortality)” value in series [1] is recorded as 95%. The compound further showed an insecticidal activity in series [3] of 100%.

For `CCc1cc(C(F)(C(F)(F)F)C(F)(F)C(F)(F)F)cc(C)c1NC(=O)c1ccc(CNC(=O)C2CC2)c(Br)c1` (centres unmarked) [Compound 5-159], in the series with Ctenocephalides felis, the “activity (mortality in %)” value is given as 98%. The insecticidal activity in series [3] turned out to be 100%.

With `CCc1cc(C(F)(C(F)(F)F)C(F)(F)C(F)(F)F)cc(C)c1NC(=O)c1ccc(CNC(=O)c2cccnc2F)c(F)c1` (centres unmarked) [Compound 5-174], the “activity (percentage of larval mortality)” value in series [1] is reported as 95%. For the same compound, the insecticidal activity in series [2] and in series [3] was 100% throughout.

`CCc1cc(C(F)(C(F)(F)F)C(F)(F)C(F)(F)F)cc(C)c1NC(=O)c1ccc(CNC(C)=O)c(I)c1` (centres unmarked) [Compound 5-194]: the “activity (percentage of larval mortality)” value in series [1] came out at 95%. Moreover, in series [3], the insecticidal activity is on record as 100%.

As to `CCc1cc(C(F)(C(F)(F)F)C(F)(F)F)cc(C)c1NC(=O)c1ccc(CN2C(=O)c3ccccc3C2=O)cc1` [Compound F-4, 4-[(1,3-dioxo-1,3-dihydro-2H-isoindol-2-yl)methyl]-N-[2-ethyl-4-(1,1,1,2,3,3,3-hepta-fluoropropan-2-yl)-6-methylphenyl]benzamide], in series [1], the mortality at 100 ppm is 90%. The mortality at 0.02 mg in the series with Boophilus microplus is 100%.

In the case of `CCc1cc(C(F)(C(F)(F)F)C(F)(F)F)cc(C)c1NC(=O)c1ccc(C#N)c(C)c1` [Compound I-5, 4-cyano-N[2-ethyl-4-(1,1,1,2,3,3,3-heptafluoropropan-2-yl)-6-methylphenyl]-3-methylbenzamide], the mortality at 100 ppm in series [1] came out at 100%. For the same compound, the mortality at 0.02 mg in the series with Boophilus microplus is 100%. Further, the pest or weed control at 100 ppm in series [2] and in series [3] was 100% each time.
